Where “and” joins values, the source holds several entries; their conditions need not be identical. Equal values may be shown once.
Tested on: sleep-deprived healthy volunteers
Test: Maintenance of wakefulness test (MWT) in sleep-deprived healthy volunteers
Format: in vivo, human
Method: The primary objective of this study was to determine the effect of Compound A (methyl (2R,3S)-3-((methylsulfonyl)amino)-2-(((cis-4-phenylcyclohexyl)oxy)methyl)piperidine-1-carboxylate), 44 mg (low dose [LD]) and 112 mg (high dose [HD]), after a single IV dose (compared to placebo) on promoting wakefulness as measured by sleep latency on the MWT (performed at approximately 2, 4, 6, and 8 hours post-dosing starting at approximately 1:00 AM and then at approximate times of 3:00, 5:00, and 7:00 AM) in sleep-deprived healthy volunteers.
This was a phase 1b, single-center, randomized, double-blind, double-dummy, placebo- and active-controlled, 4-period Williams design crossover study to evaluate the PK, PD, and safety of Compound A in sleep-deprived healthy volunteers. Compound A was administered as a 9-hour IV infusion.
Healthy adult male subjects aged 18 to 40 years, inclusive, who satisfied the inclusion and exclusion criteria were enrolled in the trial. On Day 1 of treatment period 1, eligible subjects were equally randomized to 4 treatment sequence groups (sequence 1 to 4) which defined the order of administration for Compound A LD, Compound A HD (both delivered as a 9-hour IV infusion), modafinil 300 mg, and placebo.
During the day before dosing on Day 1, participants were administered the KSS at scheduled timepoints. A practice MWT session was performed on Day 1 treatment period 1 (only once during the entire study) to familiarize subjects with the procedures. Study drug was administered in the clinic in the evening on Day 1 of each treatment period. Subjects underwent the MWT and KSS at specified timepoints after the start of the infusion. Subjects were required to stay awake between the MWT tests. Following completion of the IV infusion on Day 2, subjects underwent an additional MWT test. When the final MWT test and cognitive testing were completed, subjects were allowed to sleep (recovery sleep) for approximately 6 hours. PSG recording was collected during this time. Subjects were discharged from the unit after completion on Day 2 with continuing actigraphy upon discharge (to begin on Day −6 before the next treatment period). The interval between each subsequent treatment period was at least 7 days to ensure that the subject's circadian rhythm had returned to a normal cycle. Subject's vital signs, including BP, were monitored during the dosing and testing period. Blood samples for determination of Compound A plasma concentrations were collected at specified timepoints on Days 1 and 2 of each treatment period. Subjects completed the Columbia-Suicide Severity Rating Scale (C-SSRS) during screening, before study drug administration, and before discharge on Day 2 of each treatment period.
Primary endpoint: Latency for each MWT, defined as time to sleep onset.

[1] = Compound A 44 mg (LD), 2 hours post infusion start
[2] = Compound A 44 mg (LD), 4 hours post infusion start
[3] = Compound A 44 mg (LD), 6 hours post infusion start
[4] = Compound A 44 mg (LD), 8 hours post infusion start
[5] = Compound A 44 mg (LD), average overall during infusion
[6] = Compound A 44 mg (LD, printed ED), 2 hours post infusion start
[7] = Compound A 44 mg (LD, printed ED), 4 hours post infusion start
[8] = Compound A 44 mg (LD, printed ED), 8 hours post infusion start
[9] = Compound A 44 mg, after the end of infusion (1 hour post end of infusion)
[10] = Compound A 112 mg (HD), 2 hours post infusion start
[11] = Compound A 112 mg (HD), 4 hours post infusion start

## COC(=O)N1CCC[C@H](NS(C)(=O)=O)[C@@H]1CO[C@H]1CC[C@@H](c2ccccc2)CC1 [Compound A, methyl (2R,3S)-3-((methylsulfonyl)amino)-2-(((cis-4-phenylcyclohexyl)oxy)methyl)piperidine-1-carboxylate]
Compound A 44 mg
  Average total wake time (MWT), LS mean difference vs placebo: 16.36 min
  Total sleep time (MWT) compared to placebo: not significantly different than placebo
[1]
  Latency to Sleep Onset on MWT, LS Mean: 35.74 min
  Latency to Sleep Onset on MWT, LS Mean Difference vs placebo: 20.06 min
  Stage N1 Duration (MWT), LS Mean: 0.13 min
  Stage N1 Duration (MWT), LS Mean Difference vs placebo: -1.02 min
  Stage N2 Duration (MWT), LS Mean: 0.24 min
  Stage N2 Duration (MWT), LS Mean Difference vs placebo: -0.61 min
  Total Microsleeps (MWT), LS Mean: 0.38
  Total Microsleeps (MWT), LS Mean Difference vs placebo: −1.42
[2]
  Duration Total Microsleeps (MWT), LS Mean: 10.39 s
  Duration Total Microsleeps (MWT), LS Mean Difference vs placebo: -1.91 s
  Stage N1 Duration (MWT), LS Mean: 0.52 min
  Stage N1 Duration (MWT), LS Mean Difference vs placebo: -1.13 min
  Stage N2 Duration (MWT), LS Mean: 0.51 min
  Stage N2 Duration (MWT), LS Mean Difference vs placebo: -0.64 min
  Total Microsleeps (MWT), LS Mean: 2.21
  Total Microsleeps (MWT), LS Mean Difference vs placebo: −0.14
[3]
  Duration Total Microsleeps (MWT), LS Mean: 11.84 s
  Duration Total Microsleeps (MWT), LS Mean Difference vs placebo: 4.44 s
  Latency to Sleep Onset on MWT, LS Mean: 20.71 min
  Latency to Sleep Onset on MWT, LS Mean Difference vs placebo: 14.56 min
  Stage N1 Duration (MWT), LS Mean: 1.80 min
  Stage N1 Duration (MWT), LS Mean Difference vs placebo: 0.65 min
  Stage N2 Duration (MWT), LS Mean: 2.63 min
  Stage N2 Duration (MWT), LS Mean Difference vs placebo: 2.13 min
  Total Microsleeps (MWT), LS Mean: 2.32
  Total Microsleeps (MWT), LS Mean Difference vs placebo: 1.07
[4]
  Latency to Sleep Onset on MWT, LS Mean: 13.13 min
  Latency to Sleep Onset on MWT, LS Mean Difference vs placebo: 9.60 min
  Stage N1 Duration (MWT), LS Mean: 1.57 min
  Stage N1 Duration (MWT), LS Mean Difference vs placebo: 0.42 min
  Stage N2 Duration (MWT), LS Mean: 3.74 min
  Stage N2 Duration (MWT), LS Mean Difference vs placebo: 2.64 min
  Total Microsleeps (MWT), LS Mean: 2.10
  Total Microsleeps (MWT), LS Mean Difference vs placebo: 0.80
[5]
  Duration Total Microsleeps (MWT), LS Mean: 8.89 s
  Duration Total Microsleeps (MWT), LS Mean Difference vs placebo: -0.18 s
  Latency to Sleep Onset on MWT, LS Mean: 25.40 min and 25.40 (1.955) min
  Latency to Sleep Onset on MWT, LS Mean Difference vs placebo: 16.79 min and 16.8 min and 16.79 (2.682) min
  Stage N1 Duration (MWT), LS Mean: 1.01 min
  Stage N1 Duration (MWT), LS Mean Difference vs placebo: -0.27 min
  Stage N2 Duration (MWT), LS Mean: 1.78 min
  Stage N2 Duration (MWT), LS Mean Difference vs placebo: 0.88 min
  Total Microsleeps (MWT), LS Mean: 1.75
  Total Microsleeps (MWT), LS Mean Difference vs placebo: 0.08
[6]
  Duration Total Microsleeps (MWT), LS Mean: 1.61 s
  Duration Total Microsleeps (MWT), LS Mean Difference vs placebo: -7.19 s
[7]
  Latency to Sleep Onset on MWT, LS Mean: 32.04 min
  Latency to Sleep Onset on MWT, LS Mean Difference vs placebo: 22.94 min
[8]
  Duration Total Microsleeps (MWT), LS Mean: 11.72 s
  Duration Total Microsleeps (MWT), LS Mean Difference vs placebo: 3.92 s
[9]
  Latency to Sleep Onset on MWT, LS Mean (SE): 2.49 (2.241)
  Latency to Sleep Onset on MWT, LS Mean Difference vs placebo, Estimate (SE): −2.16 (2.752)
Compound A 112 mg
  Average total wake time (MWT), LS mean difference vs placebo: 29.59 min
  Sleep latency on the MWT during infusion, stayed across several sessions: 40 min
  Total sleep time (MWT), LS mean difference vs placebo: -2.56 min
[10]
  Duration Total Microsleeps (MWT), LS Mean: -0.02 s
  Duration Total Microsleeps (MWT), LS Mean Difference vs placebo: -8.82 s
  Latency to Sleep Onset on MWT, LS Mean: 40.02 min
  Latency to Sleep Onset on MWT, LS Mean Difference vs placebo: 24.35 min
  Stage N1 Duration (MWT), LS Mean: -0.04 min
  Stage N1 Duration (MWT), LS Mean Difference vs placebo: -1.19 min
  Stage N2 Duration (MWT), LS Mean: 0.00 min
  Stage N2 Duration (MWT), LS Mean Difference vs placebo: -0.85 min
  Total Microsleeps (MWT), LS Mean: 0.00
  Total Microsleeps (MWT), LS Mean Difference vs placebo: −1.80
[11]
  Duration Total Microsleeps (MWT), LS Mean: -0.02 s
  Duration Total Microsleeps (MWT), LS Mean Difference vs placebo: -12.3 s
  Latency to Sleep Onset on MWT, LS Mean: 40.05 min
  Latency to Sleep Onset on MWT, LS Mean Difference vs placebo: 30.95 min
  Stage N1 Duration (MWT), LS Mean: -0.04 min
  Stage N1 Duration (MWT), LS Mean Difference vs placebo: -1.69 min
  Stage N2 Duration (MWT), LS Mean: 0.00 min

— US20220331303A1, “USE OF AN OREXIN 2 RECEPTOR AGONIST FOR THE TREATMENT OF EXCESSIVE SLEEPINESS” (Takeda Pharmaceutical Company Limited, priority 2019, published 2022)
